According to PubChem BioAssay AID248 (DTP/NCI, 2004):
Values joined by “and” are separate entries in the source; they are usually repeats but may differ in a detail not shown here. Identical values can stand only once. Toxic doses and inconclusive results are not listed. No stated cut-off is given here; in the data, active means T/C of 150% or more; inactive means T/C below 125%.

Tested on: L1210 leukemia ip in BDF1 mice, survival T/C
Experiment: NCI In Vivo Anticancer Drug Screen. Data for tumor model L1210 Leukemia (intraperitoneal) in B6D2F1 (BDF1) mice
Details: endpoint: mean survival time, higher = longer survival
How it was run: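 Ratio derived from survival: compound-dosed mice over vehicle-dosed mice, all bearing a transplantable tumor.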

[1] = dose: 5.0 mg/kg/injection, schedule: Q01DX001 (ip), vehicle: saline
[2] = dose: 10.0 mg/kg/injection, schedule: Q01DX001 (ip), vehicle: saline
[3] = dose: 20.0 mg/kg/injection, schedule: Q01DX001 (ip), vehicle: saline
[4] = dose: 40.0 mg/kg/injection, schedule: Q01DX001 (ip), vehicle: saline
[5] = dose: 100.0 mg/kg/injection, schedule: Q01DX001 (ip), vehicle: saline
[6] = dose: 100.0 mg/kg/injection, schedule: Q01DX001 (ip), vehicle: Klucel (hydroxypropylcellulose) (HPC)
[7] = dose: 100.0 mg/kg/injection, schedule: Q04DX003 (ip), vehicle: Klucel (hydroxypropylcellulose) (HPC)
[8] = dose: 200.0 mg/kg/injection, schedule: Q01DX001 (ip), vehicle: Klucel (hydroxypropylcellulose) (HPC)
[9] = dose: 25.0 mg/kg/injection, schedule: Q01DX009 (ip), vehicle: saline
[10] = dose: 50.0 mg/kg/injection, schedule: Q01DX009 (ip), vehicle: saline
[11] = dose: 100.0 mg/kg/injection, schedule: Q04DX002 (ip), vehicle: Klucel (hydroxypropylcellulose) (HPC)
[12] = dose: 200.0 mg/kg/injection, schedule: Q01DX001 (ip), vehicle: saline
[13] = dose: 400.0 mg/kg/injection, schedule: Q01DX001 (ip), vehicle: saline
[14] = dose: 100.0 mg/kg/injection, schedule: Q04DX002 (ip), vehicle: saline

Measured: T/C

CSc1cc(=O)n2c3ccccc3c3ccnc1c32
inactive: [1] 98 % of control | [2] 98 % of control | [3] 100 % of control | [4] 98 % of control | dose: 80.0 mg/kg/injection, schedule: Q01DX001 (ip), vehicle: saline 100 % of control | [5] 120 % of control

CN(C)c1ccc(/C=[N+](\[O-])c2cccc(Cl)c2)cc1
inactive: [6] 95 % of control | [7] 102 % of control | [8] 97 % of control | dose: 200.0 mg/kg/injection, schedule: Q04DX003 (ip), vehicle: Klucel (hydroxypropylcellulose) (HPC) 100 % of control | dose: 400.0 mg/kg/injection, schedule: Q04DX003 (ip), vehicle: Klucel (hydroxypropylcellulose) (HPC) 107 % of control

C/C(=C\CN1C(=O)c2ccccc2C1=O)CCC(=O)O
inactive: [9] 109 % of control | [10] 101 % of control | dose: 100.0 mg/kg/injection, schedule: Q01DX009 (ip), vehicle: saline 109 % of control | dose: 200.0 mg/kg/injection, schedule: Q01DX009 (ip), vehicle: saline 111 % of control | dose: 400.0 mg/kg/injection, schedule: Q01DX009 (ip), vehicle: saline 106 % of control

OCCC[P+](c1ccccc1)(c1ccccc1)c1ccccc1
inactive: dose: 25.0 mg/kg/injection, schedule: Q01DX009 (ip), vehicle: Klucel (hydroxypropylcellulose) (HPC) 96 % of control | dose: 50.0 mg/kg/injection, schedule: Q01DX009 (ip), vehicle: Klucel (hydroxypropylcellulose) (HPC) 100 % of control | [7] 102 % of control

Cc1cnnn1-c1cccc(C(F)(F)F)c1
inactive: dose: 25.0 mg/kg/injection, schedule: Q04DX002 (ip), vehicle: Klucel (hydroxypropylcellulose) (HPC) 92 % of control | dose: 50.0 mg/kg/injection, schedule: Q04DX002 (ip), vehicle: Klucel (hydroxypropylcellulose) (HPC) 92 % of control | [11] 99 % of control and 88 % of control

CCCS(=O)(=O)C(S(C)(=O)=O)S(=O)(=O)CC (centres undefined)
inactive: [6] 94 % of control | [8] 98 % of control | dose: 400.0 mg/kg/injection, schedule: Q01DX001 (ip), vehicle: Klucel (hydroxypropylcellulose) (HPC) 91 % of control

CCOC(=O)C(O)(C#CC(C)C)C1CCCC1 (centres undefined)
inactive: [5] 107 % of control | [12] 105 % of control | [13] 102 % of control

c1nc(NCC2CC2)c2[nH]cnc2n1
inactive: [5] 97 % of control | [12] 97 % of control

O=Cc1ccc2ccc3cccc4ccc1c2c34
inactive: dose: 100.0 mg/kg/injection, schedule: Q04DX002 (ip), vehicle: saline with Tween-80 98 % of control | dose: 200.0 mg/kg/injection, schedule: Q04DX002 (ip), vehicle: saline with Tween-80 95 % of control | dose: 400.0 mg/kg/injection, schedule: Q04DX002 (ip), vehicle: saline with Tween-80 95 % of control

Clc1ccc(/C=N/Nc2nc3ccccc3s2)cc1
inactive: dose: 222.0 mg/kg/injection, schedule: Q01DX Z (ip), vehicle: methylcellulose (MC) 97 % of control | dose: 333.0 mg/kg/injection, schedule: Q01DX Z (ip), vehicle: methylcellulose (MC) 101 % of control | dose: 500.0 mg/kg/injection, schedule: Q01DX Z (ip), vehicle: methylcellulose (MC) 91 % of control

CC(=O)N1N=C(c2ccccc2)CC1C1CC(c2ccccc2)=NN1C(C)=O (centres undefined)
inactive: [5] 102 % of control | [12] 100 % of control | [13] 102 % of control

C=CS(=O)(=O)CC
inactive: dose: 25.0 mg/kg/injection, schedule: Q04DX002 (ip), vehicle: saline 119 % of control | dose: 50.0 mg/kg/injection, schedule: Q04DX002 (ip), vehicle: saline 102 % of control | [14] 102 % of control

O=C1CS/C(=N/N=C/c2ccccc2)N1
inactive: dose: 50.0 mg/kg/injection, schedule: Q01DX009 (ip), vehicle: saline with Tween-80 104 % of control | dose: 100.0 mg/kg/injection, schedule: Q01DX009 (ip), vehicle: saline with Tween-80 91 % of control | dose: 200.0 mg/kg/injection, schedule: Q01DX009 (ip), vehicle: saline with Tween-80 95 % of control

C[N+]1(C)CCCCC1
inactive: dose: 12.5 mg/kg/injection, schedule: Q01DX009 (ip), vehicle: saline 106 % of control | [9] 101 % of control | [10] 97 % of control | dose: 50.0 mg/kg/injection, schedule: Q04DX003 (ip), vehicle: saline 101 % of control

CCCCCCCCCCCC(=O)[O][Sn]([CH2]c1ccccc1)([CH2]c1ccccc1)[CH2]c1ccccc1
inactive: dose: 0.5 mg/kg/injection, schedule: Q04DX003 (ip), vehicle: other 99 % of control | dose: 0.75 mg/kg/injection, schedule: Q01DX009 (ip), vehicle: other 97 % of control | dose: 1.0 mg/kg/injection, schedule: Q04DX003 (ip), vehicle: other 99 % of control | dose: 1.5 mg/kg/injection, schedule: Q01DX009 (ip), vehicle: other 94 % of control | dose: 3.0 mg/kg/injection, schedule: Q01DX009 (ip), vehicle: other 97 % of control | dose: 3.0 mg/kg/injection, schedule: Q04DX003 (ip), vehicle: other 100 % of control

Cc1ccc([Si](O)(c2ccc(C)cc2)c2ccc(C)cc2)cc1
inactive: dose: 100.0 mg/kg/injection, schedule: Q01DX001 (ip), vehicle: other 97 % of control | dose: 200.0 mg/kg/injection, schedule: Q01DX001 (ip), vehicle: other 97 % of control | dose: 400.0 mg/kg/injection, schedule: Q01DX001 (ip), vehicle: other 100 % of control

Cc1cc(C(=O)O)cc(C)c1NC(=O)N(CCCl)N=O
inactive: dose: 46.0 mg/kg/injection, schedule: Q01DX001 (ip), vehicle: other 91 % of control | dose: 62.0 mg/kg/injection, schedule: Q01DX001 (ip), vehicle: other 90 % of control

NC(CCl)=NCCC1=NCCN1
inactive: [14] 100 % of control | dose: 200.0 mg/kg/injection, schedule: Q04DX002 (ip), vehicle: saline 106 % of control

O=C(O)COc1ccccc1C(=O)O
inactive: [1] 100 % of control | [2] 100 % of control | [3] 96 % of control | dose: 20.0 mg/kg/injection, schedule: Q04DX002 (ip), vehicle: Klucel (hydroxypropylcellulose) (HPC) 88 % of control | [4] 96 % of control | dose: 40.0 mg/kg/injection, schedule: Q04DX002 (ip), vehicle: Klucel (hydroxypropylcellulose) (HPC) 98 % of control | dose: 80.0 mg/kg/injection, schedule: Q04DX002 (ip), vehicle: Klucel (hydroxypropylcellulose) (HPC) 100 % of control | dose: 100.0 mg/kg/injection, schedule: Q01DX009 (ip), vehicle: Klucel (hydroxypropylcellulose) (HPC) 89 % of control | [11] 95 % of control | dose: 200.0 mg/kg/injection, schedule: Q01DX009 (ip), vehicle: Klucel (hydroxypropylcellulose) (HPC) 86 % of control | dose: 200.0 mg/kg/injection, schedule: Q04DX002 (ip), vehicle: Klucel (hydroxypropylcellulose) (HPC) 98 % of control | dose: 400.0 mg/kg/injection, schedule: Q01DX009 (ip), vehicle: Klucel (hydroxypropylcellulose) (HPC) 89 % of control | dose: 400.0 mg/kg/injection, schedule: Q04DX002 (ip), vehicle: Klucel (hydroxypropylcellulose) (HPC) 103 % of control

CC(N)c1ccccc1 (centres undefined)
inactive: dose: 100.0 mg/kg/injection, schedule: Q01DX001 (ip), vehicle: saline with Tween-80 95 % of control | dose: 200.0 mg/kg/injection, schedule: Q01DX001 (ip), vehicle: saline with Tween-80 90 % of control

O=c1[nH]c(=O)[nH]c(=S)[nH]1
inactive: dose: 100.0 mg/kg/injection, schedule: Q01DX Z (ip), vehicle: methylcellulose (MC) 98 % of control | dose: 200.0 mg/kg/injection, schedule: Q01DX Z (ip), vehicle: methylcellulose (MC) 87 % of control
